Test results published in US4476319A, “P-Chlorophenoxyacetic acid derivative, its method of preparation, the pharmaceutical compositions containing it and its use in medicine” (Sociedad Espanola de Especialidades Farmaco-Terapeuticas …, priority 1981, dated 1984).

Columns and labels:
[1] = tested on: loss of memory induced by electric shock; assay: Nootropa activity: protection from memory loss induced by electric shock, aquatic labyrinth (number of errors); type: in vivo, rat; conditions: rats
Experimental: Tests were carried out on rats using the technique estimating the loss of memory induced by electric shock, the loss of memory being determined as related to the number of errors made in seeking the outlet from an acquatic labyrinth (Giurgea C. J. Pharmacol (Paris) 3, 1, 17, *1972).

[2] = tested on: learning in the acquatic labyrinth; assay: Learning activity: learning in the acquatic labyrinth; type: in vivo
[3] = tested on: learning in the conditioning cage; assay: Learning activity: conditioning cage (electric shock avoidance); type: in vivo
[4] = tested on: desperation behavior in mice; assay: Anti-depressant activity: desperation behavior in mice (Porsalt); type: in vivo, mouse
Experimental: This activity was evaluated by the method of examining the desperation behavior in mice (Porsalt, T. D., Arch. Int Pharmacodyn 229, 327 (1977).
A state of despair was induced by placing the animal in a cylinder containing water, and from which escape was impossible, the animal then finding itself obliged to treadmill continually. After a period of vigorous activity, the mouse assumes a characteristic immobile posture, which behavior is capable of reduction by the use of various types of pharmaceutical anti-depressants.

[5] = tested on: cataleptic condition in rats, induced by fluphenazine; assay: Anti-cataleptic activity: Morpurgo test, antagonism of fluphenazine-induced catalepsy; type: in vivo, rat
Source text: This activity was the subject of Morpurgo tests (Arch. Int. Pharmacodyn, 137, 84 (1962), based on antagonizing the cataleptic condition in rats, induced by fluphenazine.

[6] = Toxicity, Irwin or "screening" multi-dimensional test; type: in vivo
LD50 in the rat = conditions: in vivo
LD50 in the mouse = conditions: in vivo
[7] = statement covers acquatic labyrinth and conditioning cage tests
[8] = ip, i.p. (intraperitoneal route)

## O=C(COc1ccc(Cl)cc1)OCCNC12CC3CC(CC(C3)C1)C2 [Compound I, p-chlorophenoxyacetate of 1-aminoadamantine-2-ethanol]
[1]; loss of memory by electric shock
  Nootropa activity, in words: notably active
[1]; number of errors in acquatic labyrinth, p < 0.01
  Protection from memory loss due to electric shock (number of errors): 46.5%
[2]; 5th day, vs control, p < 0.01
  Decrease with respect to the control in the errors made in the acquatic labrinth (5th day): 51.6%
[2]; [7]
  Learning facility in the acquatic labyrinth, in words: increased learning facility
[3]; [7]
  Learning facility in the conditioning cage, in words: increased learning facility
[3]; vs control, p < 0.001
  Increase with respect to the control in the conditioning cage (learning facility): 14.4%
[4]; desperation behavior
  Anti-depressant effects, in words: moderate anti-depressant effects
[4]; vs control, p < 0.001
  Protection with respect to the control (anti-depressant activity): 45.9%
[5]
  Reduction of the cataleptic activity of fluphenazine, in words: slightly reduced the cataleptic activity of the fluphenazine
[6]; non-toxic doses
  Toxicity: effects of non-toxic doses: no evidence as to effects of non-toxic doses
[6]; toxic doses
  Toxicity: effects of toxic doses: death accompanied by trembling and clonic convulsions
LD50 in the rat; [8]
  LD50: 360 mg/kg
LD50 in the rat; p.o. (oral route)
  LD50: > 4000 mg/kg
LD50 in the mouse; [8]
  LD50: 415 mg/kg
LD50 in the mouse; p.o. (oral route)
  LD50: > 4000 mg/kg
